Like-named read-outs stand apart in the source and are kept apart here. Peptide text beside a SMILES is read from it. * marks the point of attachment. Lauroyl = CCCCCCCCCCCC(=O)*
How the values were obtained:
human GIP receptor [1] = target: T1, human GIP receptor (Homo sapiens, UniProt P48546); experiment: cAMP accumulation assay, agonism (ligand alone); format: cell-based; settings: COS-7 cells, Table 1; for EC50: read-out: cAMP agonism nM (EC50); for cAMP agonism Emax: intrinsic cAMP activity; for Emax: COS-7, intrinsic cAMP activity
T1 construct: host or cells: COS-7, transient transfection (calcium phosphate), cDNA in pCMV-Script
T1 sequence (P48546 22-466): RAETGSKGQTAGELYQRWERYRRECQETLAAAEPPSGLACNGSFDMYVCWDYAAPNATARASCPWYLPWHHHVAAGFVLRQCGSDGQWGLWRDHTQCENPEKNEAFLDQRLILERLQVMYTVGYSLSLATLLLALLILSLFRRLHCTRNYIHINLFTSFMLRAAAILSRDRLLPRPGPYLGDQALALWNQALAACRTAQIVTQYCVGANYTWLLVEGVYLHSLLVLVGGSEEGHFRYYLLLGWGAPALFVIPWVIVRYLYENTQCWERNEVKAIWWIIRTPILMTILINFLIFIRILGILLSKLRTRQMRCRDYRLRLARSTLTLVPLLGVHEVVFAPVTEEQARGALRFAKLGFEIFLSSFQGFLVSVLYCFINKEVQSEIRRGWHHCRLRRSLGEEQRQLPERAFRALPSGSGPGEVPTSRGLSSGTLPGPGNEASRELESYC

human GIP receptor [2] = target: T1, human GIP receptor; experiment: 125I-human GIP competition binding assay, in the presence and absence of 2% HSA; settings: for Binding fold (paired): fold decrease in affinity compared to GIP(3-30)NH2; for Fold change HSA (2%)/Casein (0.1%): IC50 (plus HSA)/IC50 (minus HSA);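 for all read-outs here: nonspecific binding taken as radioligand bound to untransfected cells, IC50 obtained from nonlinear regression fits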
Description: Transient transfection of the COS-7 cells for cAMP accumulation and competition binding was performed using the calcium phosphate precipitation method with the addition of chloroquine^46-47.
Transient transfected COS-7 cells expressing the human GIP receptor were seeded in clear 96-well plates the day after transfection using a number of cells/well that obtained 5-10% specific binding of the added radioactive ligand. The following day, cells were assayed by competition binding for 3 h at 4° C. using 15-40 pM 125 I-human GIP as well as increasing concentrations unlabeled ligand in 50 mM Hepes buffer (pH 7.2) in the presence and absence of 2% HSA. After incubation, the cells were washed twice in ice-cold binding buffer (+/−2% HSA) and lysed using 200 mM NaOH with 1% SDS for 30 min. Nonspecific binding was determined as the binding of radioactive ligand to untransfected cells.
IC50, EC50, and Ki values were determined by nonlinear regression. […] Ki values were based on the formula for one class of binding sites in homologous competition binding studies and the Cheng Prussoffs formula, respectively (DeBlasi et al., 1989). To determine the HSA binding potential, the fold change in affinity (as determined by IC50) was calculated as IC50 (plus HSA)/IC50 (minus HSA).

[3] = Table 3b, initial data, read-out: Binding IC50
[4] = heterologous competition binding, transiently transfected COS-7 cells expressing the human GIP receptor, read-out: Binding
[5] = binding in 0.1% casein (absence of HSA), log value, read-out: logIC50 0.1% casein (converted)

`CCCCCCCCCCCC(=O)NCCCC[C@H](NC(=O)[C@H](CC(=O)O)NC(=O)[C@H](CCSC)NC(=O)[C@H](C)NC(=O)[C@@H](NC(=O)[C@H](CO)NC(=O)[C@H](Cc1ccc(O)cc1)NC(=O)[C@H](CC(=O)O)NC(=O)[C@H](CO)NC(=O)[C@@H](NC(=O)[C@H](Cc1ccccc1)NC(=O)[C@@H](NC(=O)CNC(=O)[C@@H](N)CCC(=O)O)[C@@H](C)O)[C@@H](C)CC)[C@@H](C)CC)C(=O)N[C@H](C(=O)N[C@@H](Cc1c[nH]cn1)C(=O)N[C@@H](CCC(N)=O)C(=O)N[C@@H](CCC(N)=O)C(=O)N[C@@H](CC(=O)O)C(=O)N[C@@H](Cc1ccccc1)C(=O)N[C@H](C(=O)N[C@@H](CC(N)=O)C(=O)N[C@@H](Cc1c[nH]c2ccccc12)C(=O)N[C@@H](CC(C)C)C(=O)N[C@@H](CC(C)C)C(=O)N[C@@H](C)C(=O)N[C@@H](CCC(N)=O)C(=O)N[C@@H](CCCCN)C(N)=O)C(C)C)[C@@H](C)CC` [AT102, [hGIP(3-30)NH2—C12/16]] was tested, and the EC50 (human GIP receptor [1]) was 0.7 nM, the “cAMP agonism Emax” value (human GIP receptor [1]) was 66% and the IC50 (human GIP receptor [2]; [3]) was 59.1 nM. The “Binding fold (paired)” value (human GIP receptor [2]; Table 3b) was 6.1 fold and the IC50 (human GIP receptor [2]; [4]) was 59.1 nM.
`CCCCCCCCCCCC(=O)N[C@@H](CCC(=O)O)C(=O)NCC(=O)N[C@H](C(=O)N[C@@H](Cc1ccccc1)C(=O)N[C@H](C(=O)N[C@@H](CO)C(=O)N[C@@H](CC(=O)O)C(=O)N[C@@H](Cc1ccc(O)cc1)C(=O)N[C@@H](CO)C(=O)N[C@H](C(=O)N[C@@H](C)C(=O)N[C@@H](CCSC)C(=O)N[C@@H](CC(=O)O)C(=O)N[C@@H](CCCCN)C(=O)N[C@H](C(=O)N[C@@H](Cc1c[nH]cn1)C(=O)N[C@@H](CCC(N)=O)C(=O)N[C@@H](CCC(N)=O)C(=O)N[C@@H](CC(=O)O)C(=O)N[C@@H](Cc1ccccc1)C(=O)N[C@H](C(=O)N[C@@H](CC(N)=O)C(=O)N[C@@H](Cc1c[nH]c2ccccc12)C(=O)N[C@@H](CC(C)C)C(=O)N[C@@H](CC(C)C)C(=O)N[C@@H](C)C(=O)N[C@@H](CCC(N)=O)C(=O)N[C@@H](CCCCN)C(N)=O)C(C)C)[C@@H](C)CC)[C@@H](C)CC)[C@@H](C)CC)[C@@H](C)O` [AT101, [hGIP(3-30)NH2—C12/3]] was tested, and the EC50 (human GIP receptor [1]) was 0.7 nM, the “cAMP agonism Emax” value (human GIP receptor [1]) was 62% and the IC50 (human GIP receptor [2]; [3]) was 9.9 nM. The “Binding fold (paired)” value (human GIP receptor [2]; Table 3b) was 0.7 fold and the IC50 (human GIP receptor [2]; [4]) was 9.9 nM.
In the case of `CCCCCCCCCCCC(=O)NCCCC[C@H](NC(=O)[C@@H](NC(=O)[C@H](CCCCN)NC(=O)[C@H](CC(=O)O)NC(=O)[C@H](CCSC)NC(=O)[C@H](C)NC(=O)[C@@H](NC(=O)[C@H](CO)NC(=O)[C@H](Cc1ccc(O)cc1)NC(=O)[C@H](CC(=O)O)NC(=O)[C@H](CO)NC(=O)[C@@H](NC(=O)[C@H](Cc1ccccc1)NC(=O)[C@@H](NC(=O)CNC(=O)[C@@H](N)CCC(=O)O)[C@@H](C)O)[C@@H](C)CC)[C@@H](C)CC)[C@@H](C)CC)C(=O)N[C@@H](CCC(N)=O)C(=O)N[C@@H](CCC(N)=O)C(=O)N[C@@H](CC(=O)O)C(=O)N[C@@H](Cc1ccccc1)C(=O)N[C@H](C(=O)N[C@@H](CC(N)=O)C(=O)N[C@@H](Cc1c[nH]c2ccccc12)C(=O)N[C@@H](CC(C)C)C(=O)N[C@@H](CC(C)C)C(=O)N[C@@H](C)C(=O)N[C@@H](CCC(N)=O)C(=O)N[C@@H](CCCCN)C(N)=O)C(C)C` [AT116, [hGIP(3-30)NH2—C12/18]] (H-EGTFISDYSIAMDKIK(Lauroyl)QQDFVNWLLAQK-NH2; N-terminus assumed), the Emax (human GIP receptor [1]) is reported as 0% and the “Fold change in affinity, IC50 (plus HSA)/IC50 (minus HSA)” value (human GIP receptor [2]; presence vs absence of 2% HSA, proxy for albumin binding) is reported as 5.2 fold.
In the case of `CCCCCCCCCCCCCCCC(=O)N[C@@H](CCC(=O)O)C(=O)NCC(=O)N[C@H](C(=O)N[C@@H](Cc1ccccc1)C(=O)N[C@H](C(=O)N[C@@H](CO)C(=O)N[C@@H](CC(=O)O)C(=O)N[C@@H](Cc1ccc(O)cc1)C(=O)N[C@@H](CO)C(=O)N[C@H](C(=O)N[C@@H](C)C(=O)N[C@@H](CCSC)C(=O)N[C@@H](CC(=O)O)C(=O)N[C@@H](CCCCN)C(=O)N[C@H](C(=O)N[C@@H](Cc1c[nH]cn1)C(=O)N[C@@H](CCC(N)=O)C(=O)N[C@@H](CCC(N)=O)C(=O)N[C@@H](CC(=O)O)C(=O)N[C@@H](Cc1ccccc1)C(=O)N[C@H](C(=O)N[C@@H](CC(N)=O)C(=O)N[C@@H](Cc1c[nH]c2ccccc12)C(=O)N[C@@H](CC(C)C)C(=O)N[C@@H](CC(C)C)C(=O)N[C@@H](C)C(=O)N[C@@H](CCC(N)=O)C(=O)N[C@@H](CCCCN)C(N)=O)C(C)C)[C@@H](C)CC)[C@@H](C)CC)[C@@H](C)CC)[C@@H](C)O` [AT104, [hGIP(3-30)NH2—C16/3]], the Emax (human GIP receptor [1]) is reported as 81%, the IC50 (human GIP receptor [2]; [3]) is reported as 75 nM and the “Binding fold (paired)” value (human GIP receptor [2]; Table 3b) is reported as 4.9 fold. For the same compound, the IC50 (human GIP receptor [2]; [4]) was 75 nM.
In the case of `CC[C@H](C)[C@H](NC(=O)[C@H](CO)NC(=O)[C@H](Cc1ccc(O)cc1)NC(=O)[C@H](CC(=O)O)NC(=O)[C@H](CO)NC(=O)[C@@H](NC(=O)[C@H](Cc1ccccc1)NC(=O)[C@@H](N)[C@@H](C)O)[C@@H](C)CC)C(=O)N[C@@H](C)C(=O)N[C@@H](CCSC)C(=O)N[C@@H](CC(=O)O)C(=O)N[C@@H](CCCCNC(=O)CCCCCCCCCCCCC(=O)O)C(=O)N[C@H](C(=O)N[C@@H](Cc1c[nH]cn1)C(=O)N[C@@H](CCC(N)=O)C(=O)N[C@@H](CCC(N)=O)C(=O)N[C@@H](CC(=O)O)C(=O)N[C@@H](Cc1ccccc1)C(=O)N[C@H](C(=O)N[C@@H](CC(N)=O)C(=O)N[C@@H](Cc1c[nH]c2ccccc12)C(=O)N[C@@H](CC(C)C)C(=O)N[C@@H](CC(C)C)C(=O)N[C@@H](C)C(=O)N[C@@H](CCC(N)=O)C(=O)N[C@@H](CCCCN)C(N)=O)C(C)C)[C@@H](C)CC` [AT139, [hGIP(5-30)NH2—C14diacid/16]], the Emax (human GIP receptor [1]) is reported as 0%, the “Fold change HSA (2%)/Casein (0.1%)” value (human GIP receptor [2]) is reported as 2.6 and the IC50 (human GIP receptor [2]; [5]) is reported as 158 nM. It also gave an IC50 (human GIP receptor [2]; [4]) of 153 nM.
For `CCCCCCCCCCCCCCCC(=O)N[C@H](C(=O)N[C@@H](Cc1ccccc1)C(=O)N[C@H](C(=O)N[C@@H](CO)C(=O)N[C@@H](CC(=O)O)C(=O)N[C@@H](Cc1ccc(O)cc1)C(=O)N[C@@H](CO)C(=O)N[C@H](C(=O)N[C@@H](C)C(=O)N[C@@H](CCSC)C(=O)N[C@@H](CC(=O)O)C(=O)N[C@@H](CCCCN)C(=O)N[C@H](C(=O)N[C@@H](Cc1c[nH]cn1)C(=O)N[C@@H](CCC(N)=O)C(=O)N[C@@H](CCC(N)=O)C(=O)N[C@@H](CC(=O)O)C(=O)N[C@@H](Cc1ccccc1)C(=O)N[C@H](C(=O)N[C@@H](CC(N)=O)C(=O)N[C@@H](Cc1c[nH]c2ccccc12)C(=O)N[C@@H](CC(C)C)C(=O)N[C@@H](CC(C)C)C(=O)N[C@@H](C)C(=O)N[C@@H](CCC(N)=O)C(=O)N[C@@H](CCCCN)C(N)=O)C(C)C)[C@@H](C)CC)[C@@H](C)CC)[C@@H](C)CC)[C@@H](C)O` [AT124, [hGIP(5-30)NH2—C16/5]], the Emax (human GIP receptor [1]) was 0%, the “Fold change HSA (2%)/Casein (0.1%)” value (human GIP receptor [2]) was 5.2 and the IC50 (human GIP receptor [2]; [5]) was 1580 nM.
Work on `CCCCCCCCCCCC(=O)NCCCC[C@H](NC(=O)[C@H](CC(=O)O)NC(=O)[C@H](CCSC)NC(=O)[C@H](C)NC(=O)[C@@H](NC(=O)[C@H](CO)NC(=O)[C@H](Cc1ccc(O)cc1)NC(=O)[C@H](CC(=O)O)NC(=O)[C@H](CO)NC(=O)[C@@H](NC(=O)[C@H](Cc1ccccc1)NC(=O)[C@@H](NC(=O)CNC(=O)[C@@H](N)CCC(=O)O)[C@@H](C)O)[C@@H](C)CC)[C@@H](C)CC)C(=O)N[C@H](C(=O)N[C@@H](CCCNC(=N)N)C(=O)N[C@@H](CCC(N)=O)C(=O)N[C@@H](CCC(N)=O)C(=O)N[C@@H](CC(=O)O)C(=O)N[C@@H](Cc1ccccc1)C(=O)N[C@H](C(=O)N[C@@H](CC(N)=O)C(=O)N[C@@H](Cc1c[nH]c2ccccc12)C(=O)N[C@@H](CC(C)C)C(=O)N[C@@H](CC(C)C)C(=O)N[C@@H](C)C(=O)N[C@@H](CCC(N)=O)C(=O)N[C@@H](CCCNC(=N)N)C(N)=O)C(C)C)[C@@H](C)CC` [AT153, [hGIP(3-30)NH2[H18R; K30R]-C12/16]] yielded an Emax (human GIP receptor [1]) of 0% and an IC50 (human GIP receptor [2]; [4]) of 316 nM.
For `CCCCCCCCCCCCCCCCCC(=O)N[C@H](C(=O)N[C@@H](Cc1ccccc1)C(=O)N[C@H](C(=O)N[C@@H](CO)C(=O)N[C@@H](CC(=O)O)C(=O)N[C@@H](Cc1ccc(O)cc1)C(=O)N[C@@H](CO)C(=O)N[C@H](C(=O)N[C@@H](C)C(=O)N[C@@H](CCSC)C(=O)N[C@@H](CC(=O)O)C(=O)N[C@@H](CCCCN)C(=O)N[C@H](C(=O)N[C@@H](Cc1c[nH]cn1)C(=O)N[C@@H](CCC(N)=O)C(=O)N[C@@H](CCC(N)=O)C(=O)N[C@@H](CC(=O)O)C(=O)N[C@@H](Cc1ccccc1)C(=O)N[C@H](C(=O)N[C@@H](CC(N)=O)C(=O)N[C@@H](Cc1c[nH]c2ccccc12)C(=O)N[C@@H](CC(C)C)C(=O)N[C@@H](CC(C)C)C(=O)N[C@@H](C)C(=O)N[C@@H](CCC(N)=O)C(=O)N[C@@H](CCCCN)C(N)=O)C(C)C)[C@@H](C)CC)[C@@H](C)CC)[C@@H](C)CC)[C@@H](C)O` [AT127, [hGIP(5-30)NH2—C18/5]], the Emax (human GIP receptor [1]) was 0%, the “Fold change HSA (2%)/Casein (0.1%)” value (human GIP receptor [2]) was 0.0 and the IC50 (human GIP receptor [2]; [5]) was 1580 nM.
